pIC50: −log10 of the molar value. Like-named read-outs stand apart in the source and are kept apart here.

One assay has as its system 5637. Kind of assay: Proliferation of tumor cell lines (Bracht et al.). The assay is classed as cell-based. The following applies: for activity at 20 µM: 5637, tested at 20 μM, read-out: T/C (%) Mean.
A further assay deals with SISO. The assay is described as follows: Proliferation of tumor cell lines (Bracht et al.). The assay is classed as cell-based. The settings on record: for activity at 20 µM: tested at 20 μM, read-out: T/C (%) Mean.
In the next assay the test system is KYSE-70. The assay is described as follows: Proliferation of tumor cell lines (Bracht et al.). In kind it is cell-based. The following applies: Homo sapiens; for activity at 20 µM: KYSE-70, tested at 20 μM, read-out: T/C (%) Mean.
Another assay concerns the target T1, INS-R (Homo sapiens, UniProt P06213).
T1 construct: made in house; host or cells: Sf9 insect cells, baculovirus
Kind of assay: Radiometric protein kinase assay (33PanQinase Activity Assay). The settings on record: for IC50: 1 μM ATP, read-out: IC50 values [μM] INS-R. The assay is classed as biochemical. From the text:
(§1) AKTI1, ARK5, Aurora-A, Aurora-B, B-RAF-VE, CDK2/CycA, CDK4/CycD1, CK2-alpha1 (catalytic subunit of CK2), EGF-R, EPHB4, ERBB2, FAK, IGF1-R, SRC, VEGF-R2, VEGF-R3, FLT3, INS-R, MET, PDGFR-beta, PLK1, SAK, TIE2, COT.
(§2) All the protein kinases were expressed in Sf9 insect cells as human recombinant GST fusion proteins or His-tagged proteins by the baculovirus expression system. Kinases were purified by affinity chromatography either by GSH-agarose (Sigma) or Ni—NTH-agarose (Qiagen). The purity of the kinases was tested by SDS-PAGE/silver staining, and the identity of the kinases was verified by Western blot analysis with specific antibodies or mass spectroscopy.
(§3) A radiometric protein kinase assay (33PanQinase® Activity Assay) was used to measure the kinase activity for the 24 protein kinases. The kinase assays were carried out in 96-well FlashPlates™ from Perkin Elmer/NEN (Boston, Mass., USA) in a reaction volume of 50 μl. The reaction mixture was pipetted in 4 steps in the following sequence: • 20 μl of assay buffer • 5 μl of ATP solution (in H2O) • 5 μl of test compound (in 10% DMSO) • 10 μl of substrate/10 μl of enzyme solution (premixed)
(§4) The assays for all the enzymes contained 60 mM HEPES-NaOH, pH 7.5, 3 mM MgCl2, 3 mM MnCl2, 3 μM Na orthovanadate, 1.2 mM DTT, 50 μg/ml PEG20000, 1 μM [γ-^33P]-ATP (about 5×10^5 cpm per well).
(§5) The reaction mixture was incubated at 30° C. for 80 minutes. The reaction was stopped with 50 μl of 2% (v/v) H3PO4. The plates were aspirated and washed twice with 200 μl of 0.9% (w/v) NaCl. The incorporation of ^33Pi was determined using a microtiter plates scintillation counter (Microbeta Trilux, Wallac).

For another assay, the target named is T2, Aurora-B (Homo sapiens, UniProt Q96GD4).
T2 construct: made in house; host or cells: Sf9 insect cells, baculovirus
T2 sequence (Q96GD4 whole entry): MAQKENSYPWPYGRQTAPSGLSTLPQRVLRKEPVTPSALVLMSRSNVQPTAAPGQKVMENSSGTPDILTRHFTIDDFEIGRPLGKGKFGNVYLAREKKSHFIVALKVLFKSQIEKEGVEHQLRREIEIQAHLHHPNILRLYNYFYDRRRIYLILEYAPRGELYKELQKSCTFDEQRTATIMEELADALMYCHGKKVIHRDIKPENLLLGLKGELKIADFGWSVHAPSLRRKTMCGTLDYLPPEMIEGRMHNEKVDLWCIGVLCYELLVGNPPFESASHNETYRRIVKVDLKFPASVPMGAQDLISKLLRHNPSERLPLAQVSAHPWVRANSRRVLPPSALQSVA
Described as above. In kind it is biochemical. The following applies: for IC50: 1 μM ATP, read-out: IC50 values [μM] Aurora-B.
Excerpt: as §1, §2, §3, §4, §5

The target in a further assay is T3, VEGF-R3 (Homo sapiens, UniProt P35916).
T3 construct: made in house; host or cells: Sf9 insect cells, baculovirus
T3 sequence (P35916 25-1363): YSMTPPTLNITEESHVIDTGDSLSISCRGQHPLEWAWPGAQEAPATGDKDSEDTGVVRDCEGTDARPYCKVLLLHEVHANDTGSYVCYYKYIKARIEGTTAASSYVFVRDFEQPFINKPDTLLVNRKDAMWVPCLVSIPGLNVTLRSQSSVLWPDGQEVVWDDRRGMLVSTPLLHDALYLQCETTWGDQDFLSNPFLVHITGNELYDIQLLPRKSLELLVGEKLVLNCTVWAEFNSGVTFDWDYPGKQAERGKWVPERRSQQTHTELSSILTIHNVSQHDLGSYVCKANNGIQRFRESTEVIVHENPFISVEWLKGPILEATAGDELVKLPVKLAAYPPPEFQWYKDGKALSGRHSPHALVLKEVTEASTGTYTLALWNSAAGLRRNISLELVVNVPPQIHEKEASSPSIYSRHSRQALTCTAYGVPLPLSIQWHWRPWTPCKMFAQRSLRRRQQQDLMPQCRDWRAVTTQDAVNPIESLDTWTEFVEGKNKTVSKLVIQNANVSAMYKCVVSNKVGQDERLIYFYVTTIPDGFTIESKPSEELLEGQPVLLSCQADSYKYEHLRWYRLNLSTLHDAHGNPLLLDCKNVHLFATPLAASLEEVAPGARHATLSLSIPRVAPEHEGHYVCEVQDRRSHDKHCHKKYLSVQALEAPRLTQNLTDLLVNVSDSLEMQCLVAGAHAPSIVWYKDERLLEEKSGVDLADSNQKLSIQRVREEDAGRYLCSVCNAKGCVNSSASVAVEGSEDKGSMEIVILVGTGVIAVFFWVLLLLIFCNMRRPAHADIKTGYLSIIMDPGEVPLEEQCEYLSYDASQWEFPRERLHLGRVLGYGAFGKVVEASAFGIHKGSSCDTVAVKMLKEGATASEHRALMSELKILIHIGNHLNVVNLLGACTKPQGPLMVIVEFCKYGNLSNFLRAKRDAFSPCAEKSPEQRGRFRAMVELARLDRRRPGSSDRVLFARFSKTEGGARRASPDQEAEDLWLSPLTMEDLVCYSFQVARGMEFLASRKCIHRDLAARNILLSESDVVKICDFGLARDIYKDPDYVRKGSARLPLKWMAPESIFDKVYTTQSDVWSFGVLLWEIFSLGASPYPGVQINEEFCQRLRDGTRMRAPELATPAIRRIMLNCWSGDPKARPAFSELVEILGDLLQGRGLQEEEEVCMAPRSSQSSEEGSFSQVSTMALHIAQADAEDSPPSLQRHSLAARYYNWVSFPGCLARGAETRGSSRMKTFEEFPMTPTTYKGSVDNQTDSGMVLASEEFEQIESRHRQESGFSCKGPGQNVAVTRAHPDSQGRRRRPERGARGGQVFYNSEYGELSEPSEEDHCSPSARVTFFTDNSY
The assay is described as above. The settings on record: for IC50: 1 μM ATP, read-out: IC50 values [μM] VEGF-R3. In kind it is biochemical.
Excerpt: as §1, §2, §3, §4, §5

The target of another assay is T4, SAK (Homo sapiens, UniProt O00444).
T4 construct: made in house; host or cells: Sf9 insect cells, baculovirus
T4 sequence (O00444 1-970): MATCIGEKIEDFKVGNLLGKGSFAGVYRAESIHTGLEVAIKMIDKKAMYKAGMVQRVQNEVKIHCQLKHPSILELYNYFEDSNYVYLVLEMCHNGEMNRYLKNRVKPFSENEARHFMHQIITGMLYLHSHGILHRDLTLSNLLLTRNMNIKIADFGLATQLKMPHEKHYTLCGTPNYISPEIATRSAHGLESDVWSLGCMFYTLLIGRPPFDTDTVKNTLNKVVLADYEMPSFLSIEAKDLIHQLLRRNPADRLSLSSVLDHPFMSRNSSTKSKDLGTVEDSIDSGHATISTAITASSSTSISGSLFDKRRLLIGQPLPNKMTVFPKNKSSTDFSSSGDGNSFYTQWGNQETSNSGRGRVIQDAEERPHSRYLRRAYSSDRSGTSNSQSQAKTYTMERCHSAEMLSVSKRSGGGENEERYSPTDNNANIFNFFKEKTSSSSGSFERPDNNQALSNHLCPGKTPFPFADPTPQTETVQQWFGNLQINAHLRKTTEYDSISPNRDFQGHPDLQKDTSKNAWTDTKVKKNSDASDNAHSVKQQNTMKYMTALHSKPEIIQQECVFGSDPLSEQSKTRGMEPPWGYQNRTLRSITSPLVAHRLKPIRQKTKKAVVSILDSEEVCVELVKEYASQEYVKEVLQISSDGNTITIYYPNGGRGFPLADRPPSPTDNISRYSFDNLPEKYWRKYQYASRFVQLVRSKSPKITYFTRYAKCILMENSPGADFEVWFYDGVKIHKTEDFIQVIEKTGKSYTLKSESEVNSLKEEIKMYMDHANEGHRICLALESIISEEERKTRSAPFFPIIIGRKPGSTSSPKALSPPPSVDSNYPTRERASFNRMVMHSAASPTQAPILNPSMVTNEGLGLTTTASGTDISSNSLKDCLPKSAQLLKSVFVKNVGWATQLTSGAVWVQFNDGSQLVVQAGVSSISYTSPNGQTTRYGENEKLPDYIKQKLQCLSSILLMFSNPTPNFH
Described as above. The settings on record: for IC50: 1 μM ATP, read-out: IC50 values [μM] SAK. The assay is classed as biochemical.
Excerpt: as §1, §2, §3, §4, §5

A further assay addresses T5, Aurora-A (Homo sapiens, UniProt O14965).
T5 construct: made in house; host or cells: Sf9 insect cells, baculovirus
T5 sequence (O14965 1-403): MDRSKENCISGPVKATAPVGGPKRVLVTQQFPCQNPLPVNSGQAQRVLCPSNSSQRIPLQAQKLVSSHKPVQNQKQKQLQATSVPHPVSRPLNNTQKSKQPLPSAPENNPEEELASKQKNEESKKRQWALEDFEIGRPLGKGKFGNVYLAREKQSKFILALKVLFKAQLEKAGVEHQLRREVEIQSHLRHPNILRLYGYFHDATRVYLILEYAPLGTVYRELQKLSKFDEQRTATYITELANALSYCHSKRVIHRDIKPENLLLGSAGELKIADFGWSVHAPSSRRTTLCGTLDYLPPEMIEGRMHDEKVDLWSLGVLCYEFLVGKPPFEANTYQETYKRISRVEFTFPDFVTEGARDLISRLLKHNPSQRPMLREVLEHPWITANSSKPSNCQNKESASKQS
The description is as above. In kind it is biochemical. The following applies: for IC50: 1 μM ATP, read-out: IC50 values [μM] Aurora-A.
Excerpt: as §1, §2, §3, §4, §5

In the next assay the target is T6, CDK2/CycA (Homo sapiens, UniProt P24941).
T6 construct: made in house; host or cells: Sf9 insect cells, baculovirus
The assay is described as above. The settings on record: for IC50: 1 μM ATP, read-out: IC50 values [μM] CDK2/CycA. In kind it is biochemical.
Excerpt: as §1, §2, §3, §4, §5

The next assay deals with T7, PLK1 (Homo sapiens, UniProt P53350).
T7 construct: made in house; host or cells: Sf9 insect cells, baculovirus
T7 sequence (P53350 whole entry): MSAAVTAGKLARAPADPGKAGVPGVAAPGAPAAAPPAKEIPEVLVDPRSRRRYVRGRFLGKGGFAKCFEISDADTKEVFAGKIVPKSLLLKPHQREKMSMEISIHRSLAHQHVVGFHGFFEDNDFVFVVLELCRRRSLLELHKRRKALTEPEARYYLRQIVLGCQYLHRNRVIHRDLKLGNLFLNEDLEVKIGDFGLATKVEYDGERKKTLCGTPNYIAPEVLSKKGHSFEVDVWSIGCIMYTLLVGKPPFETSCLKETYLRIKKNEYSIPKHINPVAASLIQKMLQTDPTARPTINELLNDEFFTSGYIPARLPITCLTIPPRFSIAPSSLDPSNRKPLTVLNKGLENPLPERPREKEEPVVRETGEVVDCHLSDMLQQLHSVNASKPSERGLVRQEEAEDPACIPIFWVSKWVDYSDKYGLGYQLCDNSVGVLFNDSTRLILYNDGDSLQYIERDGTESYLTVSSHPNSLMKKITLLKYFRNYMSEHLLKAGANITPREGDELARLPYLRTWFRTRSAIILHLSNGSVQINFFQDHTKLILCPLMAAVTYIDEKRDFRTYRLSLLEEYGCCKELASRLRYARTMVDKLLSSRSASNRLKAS
The description is as above. In kind it is biochemical. The settings on record: for IC50: 1 μM ATP, read-out: IC50 values [μM] PLK1.
Excerpt: as §1, §2, §3, §4, §5

T1 sequence (P06213 980-1382 limits assumed): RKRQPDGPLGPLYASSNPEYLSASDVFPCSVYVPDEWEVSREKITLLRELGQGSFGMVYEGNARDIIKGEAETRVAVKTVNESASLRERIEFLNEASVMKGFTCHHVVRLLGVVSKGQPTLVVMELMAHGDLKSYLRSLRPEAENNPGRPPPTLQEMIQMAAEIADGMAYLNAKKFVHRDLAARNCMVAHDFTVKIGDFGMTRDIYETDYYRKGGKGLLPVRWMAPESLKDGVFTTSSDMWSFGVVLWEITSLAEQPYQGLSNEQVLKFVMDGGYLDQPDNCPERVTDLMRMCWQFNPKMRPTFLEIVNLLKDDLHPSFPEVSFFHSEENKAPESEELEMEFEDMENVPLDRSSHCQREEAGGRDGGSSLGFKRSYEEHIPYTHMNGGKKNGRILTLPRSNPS

Consider `CC(C)n1c2c(c3c1-c1ccccc1C3=O)C(=O)CCC2` [Compound 4b, 5-Isopropyl-5,6,7,8-tetrahydroindeno[1,2-b]indole-9,10-dione], for which the results for the activity at 20 µM with 5637, in the assay with SISO and in the assay on KYSE-70 were 99%, 100% and 74.9%, respectively. The pIC50 against INS-R, on Aurora-B, on VEGF-R3, against SAK, at Aurora-A and at CDK2/CycA was less than 5.00 throughout. Also, the pIC50 against PLK1 is less than 5.00.

Regarding `CC(C)n1c2c(=O)ccc(=O)c2c2c(=O)c3ccccc3c21` [Compound 6b, 5-Isopropyl-5H-indeno[1,2-b]indole-6,9,10-trione], the activity at 20 µM in the assay with 5637 is -1.73%; in the assay with SISO, 0.28%; in the assay with KYSE-70, 1.26%. Also, the IC50 is 1.6 µM on INS-R; 5.4 µM on Aurora-B; 0.96 µM on VEGF-R3; 1.7 µM at SAK; 5.8 µM on Aurora-A; more than 10 µM at CDK2/CycA. Also, the IC50 on PLK1 was more than 10 µM.

In the case of `O=c1ccc(=O)c2c1c1c(=O)c3ccccc3c1n2Cc1ccccc1` [Compound 6c, 5-Benzyl 5,6,9,10-tetrahydroindeno[1,2-b]indole-6,9,10-trione], the activity at 20 µM in the assay on 5637 amounted to 0.44%; with SISO, 5.3%; with KYSE-70, 12.1%. Also, the IC50 was 2.75 µM in the assay with 5637 (5637, read-out: IC50 (μM) Mean, inhibition of cell proliferation); 2.82 µM in the assay on SISO (read-out: IC50 (μM) Mean, inhibition of cell proliferation); 2.83 µM with KYSE-70 (KYSE-70, read-out: IC50 (μM) Mean, inhibition of cell proliferation); 6.5 µM on INS-R; more than 10 µM on Aurora-B; 7.5 µM on VEGF-R3. Also, the IC50 on SAK is 3.9 µM; at Aurora-A, more than 10 µM; on CDK2/CycA it was more than 10 µM; on PLK1 it was more than 10 µM.
